Like-named read-outs stand apart in the source and are kept apart here.
Legend:
SW480 cells = test: MTs cell viability assay, SW480; type: cell-based, human; settings: for IC50: Homo sapiens, SW480, MTs cell viability, 72 h, read-out: IC50 ± SD SW480; for growth of SW480 cells: result in words, MTs
Protocol: (§1) Colorectal cancer cell lines, SW480, HT29, an HCT116, and human normal cell line HEK293 were seeded in 96-well plates at 4×10^3 cells/well, maintained overnight at 37° C., and incubated with the tested compounds at various concentrations. Cell viability was monitored after 72 h using a freshly prepared mixture of 1 part phenazine methosulfate (PMS, Sigma) solution (0.92 mg/mL) and 19 parts 3-(4,5-dimethylthiazol-2-yl)-5-(3-carboxymethoxyphenyl)-2-(4-sulfophenyl)-2H-tetrazolium (MTs, Promega) solution (2 mg/mL). Cells were incubated in 10 μL of this solution at 37° C. for 3 h, and A490 was measured. […] Experiments were performed in triplicate.

HCT116 cells = test: MTs cell viability assay, HCT116; type: cell-based, human; settings: for IC50: Homo sapiens, HCT-116, MTs cell viability, 72 h, read-out: IC50 ± SD HCT116; for growth of HCT116 cells: result in words, MTs
Protocol: as §1

β-catenin/APC-R3 = target: T1, β-catenin/APC-R3 (Homo sapiens, UniProt P35222); settings: FP selectivity assay, known inhibitors, footnotes a, b; read-out: Ki ± SD β-catenin/APC-R3; cited from earlier work
T1 construct: Wild-type β-catenin and its mutants (residues 138-686) were cloned; 6xHis; made in house; host or cells: E. coli BL21 DE3
T1 sequence (P35222 138-686): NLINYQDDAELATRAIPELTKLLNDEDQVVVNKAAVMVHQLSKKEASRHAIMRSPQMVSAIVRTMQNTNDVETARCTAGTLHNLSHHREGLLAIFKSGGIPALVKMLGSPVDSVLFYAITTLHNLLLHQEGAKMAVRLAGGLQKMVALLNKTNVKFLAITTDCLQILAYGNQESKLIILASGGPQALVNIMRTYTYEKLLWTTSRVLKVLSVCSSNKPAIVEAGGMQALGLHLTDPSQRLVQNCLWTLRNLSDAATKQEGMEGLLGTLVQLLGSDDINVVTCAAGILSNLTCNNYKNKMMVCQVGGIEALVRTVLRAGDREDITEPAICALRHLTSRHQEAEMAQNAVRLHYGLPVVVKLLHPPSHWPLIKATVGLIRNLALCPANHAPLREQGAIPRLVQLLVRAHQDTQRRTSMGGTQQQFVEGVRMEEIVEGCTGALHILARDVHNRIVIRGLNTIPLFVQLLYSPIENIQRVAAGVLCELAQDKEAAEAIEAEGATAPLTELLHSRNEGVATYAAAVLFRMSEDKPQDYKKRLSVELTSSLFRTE

β-catenin/Tcf4 = target: T2, β-catenin/Tcf4 (Homo sapiens, UniProt P35222); settings: FP selectivity assay, known inhibitors, footnotes a, b; read-out: Ki ± SD β-catenin/Tcf4; cited from earlier work
T2 sequence (P35222 138-686): T1 sequence (P35222 138-686)

HT29 cells = test: MTs cell viability assay, HT29; type: cell-based; settings: Homo sapiens, HT-29, 72 h, read-out: IC50 ± SD HT29
Protocol: as §1

[1] = system: FOPFlash luciferase (reporter with eight mutant Tcf binding sites); type: cell-based, human
Protocol: (§2) FuGENE 6 (E2962, Promega) in a 96-well plate format was used for the transfection of HEK293 and SW480 cells according to the manufacturer's instructions. […] SW480 cells were co-transfected with 60 ng of the TOPFlash or FOPFlash reporter gene and 40 ng pCMV-RL normalization reporter. Cells were cultured in DMEM and 10% fatal bovine serum at 37° C. for 24 h, and different concentrations of inhibitors were then added. After 24 h, the luciferase reporter activity was measured using the Dual-Glo system (E2940, Promega). Normalized luciferase activity in response to the treatment with the inhibitors was compared with that obtained from the cells treated with DMSO. Experiments were performed in triplicate.

β-catenin/Tcf4 PPI [2] = target: T3, β-catenin/Tcf4 PPI (Homo sapiens, UniProt P35222)
T3 sequence (P35222 138-686): T1 sequence (P35222 138-686)
Source text: (§3) After β-catenin and fluorescein-Tcf4 form a protein-protein complex, the fluorophore is attached to a high-molecular-weight protein complex (≥60 kDa) and has a low rotational speed when it is excited by plane-polarized light. […] When an inhibitor completely disrupts the β-catenin/fluorescein-Tcf4 PPI, the fluorophore is only attached to Tcf4 (≤6 kDa), and the emitted light after excitation will be largely depolarized due to a high rotational speed of the fluorophore. AlphaScreen is a bead-based assay. […] On laser excitation at 680 nm, the photo sensitizers inside the donor beads convert ambient oxygen to a singlet oxygen state. Only when the donor and acceptor beads are brought within 200 nm can the singlet oxygen molecules diffuse to the acceptor beads, resulting in extensive emission at 570 nm.

β-catenin/Tcf4 PPI [3] = target: T3, β-catenin/Tcf4 PPI; settings: for inhibitory potency for the β-catenin/Tcf PPI in the biochemical assays: result in words, FP and AlphaScreen
Source text: as §3

[4] = system: canonical Wnt signaling in pcDNA3.1-β-catenin transfected HEK293 cells; test: TOPFlash luciferase reporter assay, HEK293; type: cell-based, human; settings: for TOPFlash luciferase activity / transactivation of canonical Wnt signaling: result in words, Wnt-activated HEK293
Protocol: as §2

β-catenin/Tcf4 PPI [5] = target: T3, β-catenin/Tcf4 PPI; test: biochemical
Source text: as §3

[6] = system: Wnt/β-catenin target genes in SW480 cells
Protocol: Total RNAs were extracted with TRIzol (Ser. […] The threshold cycle (CT) values were normalized to that of internal reference GAPDH. The primer pairs for human GAPDH were forward: [NT] and reverse: [NT]; for human HPRT forward: [NT] and reverse: [NT]; for human AXIN2 forward: [NT] and reverse: [NT]; for human c-myc forward: [NT] and reverse: [NT]; and for human cyclin D1 forward: [NT] and reverse: [NT]. Experiments were performed in triplicate.

[7] = read-out: FP Ki ± SD, Table 6, fragments of 18
[8] = read-out: Ki ± SD AlphaScreen, Table 8, resynthesized 18 and derivatives
[9] = read-out: Ki ± SD FP, Table 8, resynthesized 18 and derivatives

Compound: COC1=C(C[C@H](C)O)C2c3c(c(O)cc4c3-c3c(cc(O)c5c3C2C(C[C@H](C)O)=C(OC)C5=O)OCO4)C1=O (stereo partly shown) [Compound 2]
- IC50 (SW480 cells): 5.5 ± 1.3 µM
- IC50 (HCT116 cells): 1.2 ± 0.48 µM
- Ki (β-catenin/APC-R3): 130 ± 0.38 µM
- Ki (β-catenin/Tcf4): 150 ± 19 µM
- IC50 (HT29 cells): 1.8 ± 0.13 µM

Compound: CCc1ccc(-c2nc(CSCC(=O)NCCc3ccccc3)c(C)o2)cc1 [Compound 8, reference compound]
- FOPFlash luciferase reporter activity ([1]; reference inhibitors): inhibited

Compound: O=C(O)c1ccc2nc(-c3ccc(Cl)cc3)c(-c3ccc(Cl)cc3)nc2c1 [Compound 15]
- IC50 (SW480 cells): 38 ± 1.1 µM
- IC50 (HCT116 cells): 22 ± 5.9 µM
- IC50 (HT29 cells): 41 ± 1 µM

Compound: O=C(O)c1cc(-c2ccc(Oc3ccc(Cl)cc3)cc2)on1 [Compound 16]
- IC50 (SW480 cells): > 400 µM
- IC50 (HCT116 cells): > 400 µM
- IC50 (HT29 cells): 430 ± 25 µM

Compound: O=C(O)c1cc2nc(-c3ccc4c(c3)OCO4)c(-c3ccc4c(c3)OCO4)nc2cc1O [Compound 17]
- Ki (β-catenin/Tcf4 PPI [2]; read-out: Ki + SD AlphaScreen, Table 3, purchased screening hits): 12 ± 0.78 µM
- IC50 (SW480 cells): 110 ± 21 µM
- IC50 (HCT116 cells): 250 ± 21 µM
- Ki (β-catenin/Tcf4 PPI [3]; read-out: Ki + SD FP, Table 3, purchased screening hits): 8.7 ± 1 µM
- IC50 ([4]; Homo sapiens, pcDNA3.1-β-catenin transfected HEK293, 24 h, read-out: TOPFlash IC50 ± SD Wnt-activated HEK293): > 100 µM
- IC50 (HT29 cells): 300 µM

Compound: O=C1c2ccccc2-c2nc3nonc3nc21 [Compound 19B, 9H-Indeno[1,2-B][1,2,5]Oxadiazolo[3,4-E]Pyrazin-9-One]
- Ki (β-catenin/Tcf4 PPI [3]; [7]): 310 ± 11 µM
- inhibitory potency for the β-catenin/Tcf PPI in the biochemical assays (β-catenin/Tcf4 PPI [3]): some inhibitory activities

Compound: N/N=C1/c2ccccc2-c2nc3nonc3nc21 [Compound 20, (Z)-9-Hydrazono-9H-Indeno[1,2-B][1,2,5]Oxadiazolo[3,4-E]Pyrazine]
- Ki (β-catenin/Tcf4 PPI [3]; [7]): 230 ± 6.2 µM

Compound: NC(=S)N/N=C1/c2ccccc2-c2nc3nonc3nc21 [Compound 21]
- Ki (β-catenin/Tcf4 PPI [3]; [7]): 240 ± 4.6 µM
- inhibitory potency for the β-catenin/Tcf PPI in the biochemical assays (β-catenin/Tcf4 PPI [3]): some inhibitory activities

Compound: NC(=O)c1nonc1N [Compound 22]
- Ki (β-catenin/Tcf4 PPI [5]): > 2000 µM

Compound: Nc1nonc1C(=O)N1CCCC1 [Compound 23]
- Ki (β-catenin/Tcf4 PPI [3]; [7]): 1700 ± 28 µM
- inhibitory potency for the β-catenin/Tcf PPI in the biochemical assays (β-catenin/Tcf4 PPI [3]): some inhibitory activities

Compound: CC(C)CNC(=O)c1nonc1N [Compound 24]
- Ki (β-catenin/Tcf4 PPI [5]): > 2000 µM

Compound: Nc1nonc1C(=O)NCc1ccccc1 [Compound 25]
- Ki (β-catenin/Tcf4 PPI [3]; [7]): 1700 ± 37 µM
- inhibitory potency for the β-catenin/Tcf PPI in the biochemical assays (β-catenin/Tcf4 PPI [3]): some inhibitory activities

Compound: Nc1nonc1NC(=O)Cn1c2ccccc2c2nc3nonc3nc21 [Compound 26, 2-(5H-[1,2,5]Oxadiazolo[3′,4′:5,6]Pyrazino[2,3-B]Indol-5-yl)-N-(4-Amino-1,2,5-Oxadiazol-3-yl)Acetamide]
- growth of SW480 cells (SW480 cells): did not exhibit the inhibitory activities
- growth of HCT116 cells (HCT116 cells): did not exhibit the inhibitory activities
- TOPFlash luciferase activity / transactivation of canonical Wnt signaling [4]: did not inhibit

Compound: c1ccc2c(c1)[nH]c1nc3nonc3nc12 [Compound 27, 5H-[1,2,5]Oxadiazolo[3′,4′:5,6]Pyrazino[2,3-B]Indole]
- Ki (β-catenin/Tcf4 PPI [2]; [8]): 120 ± 8.7 µM
- Ki (β-catenin/Tcf4 PPI [3]; [9]): 280 ± 12 µM
- inhibitory potency for the β-catenin/Tcf PPI in the biochemical assays (β-catenin/Tcf4 PPI [3]): poor inhibitory potency

Compound: COC(=O)CCn1c2ccccc2c2nc3nonc3nc21 [Compound 30, Methyl 3-(5H-[1,2,5]Oxadiazolo[3′,4′:5,6]Pyrazino[2,3-B]Indol-5-yl)Propanoate]
- growth of SW480 cells (SW480 cells): did not exhibit the inhibitory activities
- growth of HCT116 cells (HCT116 cells): did not exhibit the inhibitory activities

Compound: CCOC(=O)CCCn1c2ccccc2c2nc3nonc3nc21 [Compound 32, Ethyl 4-(5H-[1,2,5]Oxadiazolo[3′,4′:5,6]Pyrazino[2,3-B]Indol-5-yl)Butanoate]
- growth of SW480 cells (SW480 cells): did not exhibit the inhibitory activities
- growth of HCT116 cells (HCT116 cells): did not exhibit the inhibitory activities

Compound: O=C(O)CCCn1c2ccccc2c2nc3nonc3nc21 [Compound 33, 4-(5H-[1,2,5]Oxadiazolo[3′,4′:5,6]Pyrazino[2,3-B]Indol-5-yl)Butanoic Acid]
- growth of SW480 cells (SW480 cells): did not exhibit the inhibitory activities
- growth of HCT116 cells (HCT116 cells): did not exhibit the inhibitory activities
- TOPFlash luciferase activity / transactivation of canonical Wnt signaling [4]: did not inhibit

Compound: N#CCCCn1c2ccccc2c2nc3nonc3nc21 [Compound 36, 4-(5H-[1,2,5]Oxadiazolo[3′,4′:5,6]Pyrazino[2,3-B]Indol-5-yl)Butanenitrile]
- Ki (β-catenin/Tcf4 PPI [2]; [8]): 120 ± 4.2 µM
- Ki (β-catenin/Tcf4 PPI [3]; [9]): 160 ± 8.9 µM

Compound: c1ccc2c(c1)c1nc3nonc3nc1n2CCc1nnn[nH]1 [Compound 37, 5-(2-(2H-Tetrazol-5-yl)Ethyl)-5H-[1,2,5]Oxadiazolo[3′,4′:5,6]Pyrazino[2,3-B]Indole]
- expression of house-keeping gene HPRT ([6]; SW480): did not affect
- expression of AXIN2, cyclin D1, and c-myc (mRNA) ([6]; SW480, dose-dependent): down-regulated
- IC50 (SW480 cells): 20 µM
- TOPFlash luciferase activity / transactivation of canonical Wnt signaling [4]: suppressed the TOPFlash luciferase activity in a dose-dependent manner
- FOPFlash luciferase activity ([1]; even at 200 μM, pcDNA3.1-β-catenin transfected HEK293): did not affect

— patent publication US10273246B2, “Methods and compositions of substituted 5H-[1,2,5] oxadiazolo [3′,4′:5,6] pyrazino[2,3-B] indole analogs as inhibitors of β-catenin/T-cell factor protein-protein interactions” (University of Utah Research Foundation, priority 2015, dated 2019)
